From patent publication US11864555B2, “Soil application of crop protection agents” (PIONEER HI-BRED INTERNATIONAL, INC., priority 2017, dated 2024)

Legend:
[1] = Aerobic soil degradation of cyantraniliprole in loam soil; type: physicochemical; conditions: 90 days, pH 5.7
Method: Loam soil had 29% sand, 50% silt, and 21% clay with 2.9% organic matter and a pH of 5.7. […] Soil (20.0 to 50 g) was weighed into individual glass containers and moisture was adjusted to field moisture capacity at approximately 27% by weight by adding de-ionized water to the containers. Afterward, the containers were covered with breathable tape and pre-incubated inside a temperature-controlled incubator at 25° C. for 6 days. The tape allowed free oxygen exchange between the container headspace and ambient air while minimizing soil water loss due to evaporation. […] The incubator temperature was monitored by a digital thermometer and Hobo data logger, and soil water loss was monitored by weighing each sample container during the experiment. […] Soil moisture content was brought back to field capacity once every 1-2 weeks by adding de-ionized water equivalent to the amount of moisture that was lost, monitored by weighing each container every week.
At sampling intervals of 0, 3, 7, 14, 28, 56 and 90 days, three containers from each treatment were removed from the incubator, and the 5 cyantraniliprole-containing particles were collected and transferred to 100 mL polypropylene bottles for extraction. […] Cyantraniliprole was separated by HPLC and quantified by UV detection at 220 nm using an external calibration curve of an analytical standard.

[2] = cited from earlier work
[3] = Aerobic soil degradation of cyantraniliprole in Tama soil; type: physicochemical
Method: Aerobic soil degradation of cyantraniliprole in the various beads was determined versus a stock aqueous solution by following the changes in cyantraniliprole concentration over time.
Tama soil (clay-loam soil) was collected and stored in a refrigerator prior to use. […] Soil (10.0 to 68.3 grams) was weighted into glass jars or polypropylene vials and the moisture content was adjusted to 32.4% (Field capacity for this soil) by adding deionized water to the containers. The containers were covered with tape and pre-incubated inside a temperature controlled incubator at 25° C. for 4 days. […] The incubator temperature was monitored by a digital thermometer, and soil water loss was monitored by weighing each sample container during the experiment. […]
At sampling intervals of 0, 3, 7, 14, 21, 28, 35, 56, 100 and 120 days, three containers from each treatment were removed from the incubator, and the four cyantraniliprole-containing particles or pellets in each container were collected and transferred to 100 mL polypropylene bottles for extraction. […] After the overnight extraction, the extracts were allowed to settle and the supernatant was filtered through 0.4 μm pore size polypropylene filters and stored in a −20° C. freezer before quantifying cyantraniliprole. […]

[4] = type: in vivo, soybean; conditions: delivered via the CRYSTAL GREEN particles
Method: The procedure used for Bead #1 was repeated, using CRYSTAL GREEN® fertilizer and the pesticide used was 50% chlorantraniliprole insecticide treatment. Analysis of the amount of chlorantraniliprole for Bead #14 was determined to be 2.15 μg chlorantraniliprole per milligram of bead. Individual rhizotron growth chambers were used as the test apparatus as described before. Beads #13 and 14, or the control solutions were applied to the center area of the soil plug at about 4 mm depth. All the rhizotron chambers were then transferred to the growth room and fit to black utility boxes with precut 4-inch-depth notches located on the left and right rim of the boxes, allowing the chambers to set at about 90 degree upright position. […]
The rhizotrons were maintained in a growth chamber with controlled temperature and light with a 14-hour day/10-hour night diurnal cycle. […] The amount of water or nutrient used was recorded. Plant growth stages were also recorded and photographed periodically. […]
Plant leaflets were harvested 3 times at 24 days (R1 growth stage), 38 days (R4), and 49 days (R5.5) after planting for quantifying the pesticide concentrations. […] Each CPC was quantified by LC-MSMS method using electro-spray positive ionization mode. […] Remaining soil associated with the dried roots was removed and root weight was measured using an analytical balance.

CNC(=O)c1cc(C#N)cc(C)c1NC(=O)c1cc(Br)nn1-c1ncccc1Cl [Control E, Cyantraniliprole]
cyantraniliprole degraded by day 90 [1]: ~79%

CO/C=C(/C(=O)OC)c1ccccc1COc1cccc(C(F)(F)F)n1 [Picoxystrobin]
water solubility [2]: 3.25 milligrams/liter

CNC(=O)c1cc(C#N)cc(C)c1NC(=O)c1cc(Br)nn1-c1ncccc1Cl [stock solution, cyantraniliprole]
cyantraniliprole degraded by day 100 ([3]; 100 days, pH 5.8): ~76% | half-life of biodegradation by soil microbes ([3]; Tama soil, 25° C., aerobic): approximately 43 days

CNC(=O)c1cc(Cl)cc(C)c1NC(=O)c1cc(Br)nn1-c1ncccc1Cl [Chlorantraniliprole]
concentrations in leaf samples averaged from 24 to 49 days [4]: 0.097 μg/gram fresh leaves
